In patent publication US20240415914A1, “Water Dispersible Cannabinoid Compositions” (priority 2021, published 2024):

Assay: Stability of cannabinoid and Vitamin E components of Beverage 1 (AB White) stored at 8° C. and 21-25° C., LCMSMS over 570 days
Assay type: physicochemical
Conditions: for Stability in AB White, 8° C. (content by LCMSMS): beverage stored at 8° C.; for Stability in AB White, 21-25° C. (content by LCMSMS): beverage stored at 21-25° C.
Procedure: The LCMSMS was calibrated for 0-1000 ng/ml cannabinoids with the same resin material used in the preparation of the concentrates. At each time period, 100 ml of beverage was diluted with 10 ml of methanol and injected into the LCMSMS for analysis.

SMILES: CCCCCc1cc(O)c2c(c1)OC(C)(C)c1ccc(C)cc1-2 [CBN, cannabinol]
- Stability in AB White, 8° C. (content by LCMSMS) (day 0): 2.79 µg/mL
- Stability in AB White, 8° C. (content by LCMSMS) (day 1): 2.77 µg/mL
- Stability in AB White, 8° C. (content by LCMSMS) (day 2): 2.72 µg/mL
- Stability in AB White, 8° C. (content by LCMSMS) (day 3): 2.73 µg/mL
- Stability in AB White, 8° C. (content by LCMSMS) (day 5): 2.76 µg/mL
- Stability in AB White, 8° C. (content by LCMSMS) (day 8): 2.75 µg/mL
- Stability in AB White, 8° C. (content by LCMSMS) (day 9): 2.76 µg/mL
- Stability in AB White, 8° C. (content by LCMSMS) (day 10): 2.79 µg/mL
- Stability in AB White, 8° C. (content by LCMSMS) (day 11): 2.71 µg/mL
- Stability in AB White, 8° C. (content by LCMSMS) (day 12): 2.80 µg/mL
- Stability in AB White, 8° C. (content by LCMSMS) (day 15): 2.79 µg/mL
- Stability in AB White, 8° C. (content by LCMSMS) (day 16): 2.77 µg/mL
- Stability in AB White, 8° C. (content by LCMSMS) (day 17): 2.82 µg/mL
- Stability in AB White, 8° C. (content by LCMSMS) (day 18): 2.71 µg/mL
- Stability in AB White, 8° C. (content by LCMSMS) (day 19): 2.71 µg/mL
- Stability in AB White, 8° C. (content by LCMSMS) (day 22): 2.76 µg/mL
- Stability in AB White, 8° C. (content by LCMSMS) (day 23): 2.71 µg/mL
- Stability in AB White, 8° C. (content by LCMSMS) (day 24): 2.75 µg/mL
- Stability in AB White, 8° C. (content by LCMSMS) (day 25): 2.75 µg/mL
- Stability in AB White, 8° C. (content by LCMSMS) (day 26): 2.76 µg/mL
- Stability in AB White, 8° C. (content by LCMSMS) (day 29): 2.76 µg/mL
- Stability in AB White, 8° C. (content by LCMSMS) (day 30): 2.78 µg/mL
- Stability in AB White, 8° C. (content by LCMSMS) (day 60): 2.68 µg/mL
- Stability in AB White, 8° C. (content by LCMSMS) (day 90): 2.74 µg/mL
- Stability in AB White, 8° C. (content by LCMSMS) (day 120): 2.72 µg/mL
- Stability in AB White, 8° C. (content by LCMSMS) (day 150): 2.69 µg/mL
- Stability in AB White, 8° C. (content by LCMSMS) (day 180): 2.77 µg/mL
- Stability in AB White, 8° C. (content by LCMSMS) (day 210): 2.75 µg/mL
- Stability in AB White, 8° C. (content by LCMSMS) (day 240): 2.70 µg/mL
- Stability in AB White, 8° C. (content by LCMSMS) (day 270): 2.75 µg/mL
- Stability in AB White, 8° C. (content by LCMSMS) (day 300): 2.71 µg/mL
- Stability in AB White, 8° C. (content by LCMSMS) (day 330): 2.75 µg/mL
- Stability in AB White, 8° C. (content by LCMSMS) (day 360): 2.68 µg/mL
- Stability in AB White, 8° C. (content by LCMSMS) (day 390): 2.67 µg/mL
- Stability in AB White, 8° C. (content by LCMSMS) (day 420): 2.70 µg/mL
- Stability in AB White, 8° C. (content by LCMSMS) (day 450): 2.70 µg/mL
- Stability in AB White, 8° C. (content by LCMSMS) (day 480): 2.66 µg/mL
- Stability in AB White, 8° C. (content by LCMSMS) (day 510): 2.60 µg/mL
- Stability in AB White, 8° C. (content by LCMSMS) (day 540): 2.56 µg/mL
- Stability in AB White, 8° C. (content by LCMSMS) (day 570): 2.56 µg/mL
- Stability in AB White, 21-25° C. (content by LCMSMS) (day 0): 2.79 µg/mL
- Stability in AB White, 21-25° C. (content by LCMSMS) (day 1): 2.79 µg/mL
- Stability in AB White, 21-25° C. (content by LCMSMS) (day 2): 2.81 µg/mL
- Stability in AB White, 21-25° C. (content by LCMSMS) (day 3): 2.73 µg/mL
- Stability in AB White, 21-25° C. (content by LCMSMS) (day 5): 2.80 µg/mL
- Stability in AB White, 21-25° C. (content by LCMSMS) (day 8): 2.71 µg/mL
- Stability in AB White, 21-25° C. (content by LCMSMS) (day 9): 2.78 µg/mL
- Stability in AB White, 21-25° C. (content by LCMSMS) (day 10): 2.77 µg/mL
- Stability in AB White, 21-25° C. (content by LCMSMS) (day 11): 2.80 µg/mL
- Stability in AB White, 21-25° C. (content by LCMSMS) (day 12): 2.75 µg/mL
- Stability in AB White, 21-25° C. (content by LCMSMS) (day 15): 2.81 µg/mL
- Stability in AB White, 21-25° C. (content by LCMSMS) (day 16): 2.75 µg/mL
- Stability in AB White, 21-25° C. (content by LCMSMS) (day 17): 2.70 µg/mL
- Stability in AB White, 21-25° C. (content by LCMSMS) (day 18): 2.78 µg/mL
- Stability in AB White, 21-25° C. (content by LCMSMS) (day 19): 2.73 µg/mL
- Stability in AB White, 21-25° C. (content by LCMSMS) (day 22): 2.69 µg/mL
- Stability in AB White, 21-25° C. (content by LCMSMS) (day 23): 2.68 µg/mL
- Stability in AB White, 21-25° C. (content by LCMSMS) (day 24): 2.79 µg/mL
- Stability in AB White, 21-25° C. (content by LCMSMS) (day 25): 2.75 µg/mL
- Stability in AB White, 21-25° C. (content by LCMSMS) (day 26): 2.69 µg/mL
- Stability in AB White, 21-25° C. (content by LCMSMS) (day 29): 2.75 µg/mL
- Stability in AB White, 21-25° C. (content by LCMSMS) (day 30): 2.72 µg/mL
- Stability in AB White, 21-25° C. (content by LCMSMS) (day 60): 2.63 µg/mL
- Stability in AB White, 21-25° C. (content by LCMSMS) (day 90): 2.66 µg/mL
- Stability in AB White, 21-25° C. (content by LCMSMS) (day 120): 2.67 µg/mL
- Stability in AB White, 21-25° C. (content by LCMSMS) (day 150): 2.77 µg/mL
- Stability in AB White, 21-25° C. (content by LCMSMS) (day 180): 2.68 µg/mL
- Stability in AB White, 21-25° C. (content by LCMSMS) (day 210): 2.74 µg/mL
- Stability in AB White, 21-25° C. (content by LCMSMS) (day 240): 2.71 µg/mL
- Stability in AB White, 21-25° C. (content by LCMSMS) (day 270): 2.67 µg/mL
- Stability in AB White, 21-25° C. (content by LCMSMS) (day 300): 2.73 µg/mL
- Stability in AB White, 21-25° C. (content by LCMSMS) (day 330): 2.75 µg/mL
- Stability in AB White, 21-25° C. (content by LCMSMS) (day 360): 2.67 µg/mL
- Stability in AB White, 21-25° C. (content by LCMSMS) (day 390): 2.66 µg/mL
- Stability in AB White, 21-25° C. (content by LCMSMS) (day 420): 2.62 µg/mL
- Stability in AB White, 21-25° C. (content by LCMSMS) (day 450): 2.61 µg/mL
- Stability in AB White, 21-25° C. (content by LCMSMS) (day 480): 2.57 µg/mL
- Stability in AB White, 21-25° C. (content by LCMSMS) (day 510): 2.66 µg/mL
- Stability in AB White, 21-25° C. (content by LCMSMS) (day 540): 2.63 µg/mL
- Stability in AB White, 21-25° C. (content by LCMSMS) (day 570): 2.56 µg/mL
